Test results: PubChem BioAssay AID256 (DTP/NCI, 2004)
Several values for one entry are separate records, joined by “and”; a condition that tells them apart may be missing. Equal values may be shown once. Toxic doses and inconclusive results are not listed. The calls were made as follows: active = survival T/C of 150% or more; inactive = T/C below 125% in these data.

System: CD2F1 mice, L1210 leukemia ip, survival T/C
Test: NCI In Vivo Anticancer Drug Screen. Data for tumor model L1210 Leukemia (intraperitoneal) in CD2F1 (CDF1) mice
Settings: endpoint: mean survival time, higher = longer survival
Outline: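 Each value reflects a quotient of treated over vehicle control outcomes in mice with a transplanted tumor.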

[1] = dose: 100.0 mg/kg/injection, schedule: Q01DX009 (ip), vehicle: saline with Tween-80
[2] = dose: 200.0 mg/kg/injection, schedule: Q01DX009 (ip), vehicle: saline with Tween-80
[3] = dose: 400.0 mg/kg/injection, schedule: Q01DX009 (ip), vehicle: saline with Tween-80
[4] = dose: 50.0 mg/kg/injection, schedule: Q01DX009 (ip), vehicle: saline with Tween-80
[5] = dose: 100.0 mg/kg/injection, schedule: Q04DX003 (ip), vehicle: saline with Tween-80
[6] = dose: 200.0 mg/kg/injection, schedule: Q04DX003 (ip), vehicle: saline with Tween-80
[7] = dose: 400.0 mg/kg/injection, schedule: Q04DX003 (ip), vehicle: saline with Tween-80
[8] = dose: 100.0 mg/kg/injection, schedule: Q04DX002 (ip), vehicle: saline with Tween-80
[9] = dose: 200.0 mg/kg/injection, schedule: Q04DX002 (ip), vehicle: saline with Tween-80
[10] = dose: 400.0 mg/kg/injection, schedule: Q04DX002 (ip), vehicle: saline with Tween-80

Measured: T/C

CC(C)CCCCCCCCCCCCC(=O)NCC(=O)NC1C(C)OC(Nc2ncnc3nc[nH]c23)C(O)C1O (centres undefined)
inactive: dose: 0.25 mg/kg/injection, schedule: Q01DX009 (ip), vehicle: distilled water + Tween-80 100 % of control and 102 % of control | dose: 0.5 mg/kg/injection, schedule: Q01DX009 (ip), vehicle: distilled water + Tween-80 96 % of control and 100 % of control | dose: 1.0 mg/kg/injection, schedule: Q01DX009 (ip), vehicle: distilled water + Tween-80 96 % of control and 104 % of control | dose: 2.0 mg/kg/injection, schedule: Q01DX009 (ip), vehicle: distilled water + Tween-80 98 % of control and 107 % of control | dose: 4.0 mg/kg/injection, schedule: Q01DX009 (ip), vehicle: distilled water + Tween-80 96 % of control and 106 % of control | dose: 8.0 mg/kg/injection, schedule: Q01DX009 (ip), vehicle: distilled water + Tween-80 94 % of control and 102 % of control

Nc1nc(N)c(N=Nc2ccc(S(=O)(=O)c3ccc(N=Nc4c(N)nc(N)[nH]c4=O)cc3)cc2)c(=O)[nH]1
inactive: [1] 102 % of control | [2] 92 % of control | [3] 92 % of control

COc1ccc(CNc2ccc([N+](=O)[O-])c3nonc23)cc1
inactive: dose: 50.0 mg/kg/injection, schedule: Q01DX009 (ip), vehicle: Klucel (hydroxypropylcellulose) (HPC) 94 % of control | dose: 100.0 mg/kg/injection, schedule: Q01DX009 (ip), vehicle: Klucel (hydroxypropylcellulose) (HPC) 86 % of control | dose: 200.0 mg/kg/injection, schedule: Q01DX009 (ip), vehicle: Klucel (hydroxypropylcellulose) (HPC) 94 % of control

CC(=O)OC1CCC2(C)CCCC(O)C2(O)C1 (centres undefined)
inactive: dose: 25.0 mg/kg/injection, schedule: Q01DX009 (ip), vehicle: saline with Tween-80 103 % of control | [4] 116 % of control | [1] 107 % of control | dose: 100.0 mg/kg/injection, schedule: Q04DX003 (ip), vehicle: acetone 101 % of control | dose: 150.0 mg/kg/injection, schedule: Q01DX009 (ip), vehicle: saline 97 % of control | dose: 225.0 mg/kg/injection, schedule: Q01DX009 (ip), vehicle: saline 100 % of control | dose: 335.0 mg/kg/injection, schedule: Q01DX009 (ip), vehicle: saline 91 % of control

N=C(N)Cc1ccc(NC(=O)c2ccc(C(=O)Nc3ccc(CC(=N)N)cc3)cc2)cc1
inactive: dose: 7.2 mg/kg/injection, schedule: Q01DX009 (ip), vehicle: acetone 102 % of control | dose: 10.8 mg/kg/injection, schedule: Q01DX009 (ip), vehicle: acetone 121 % of control

O=[N+]([O-])c1ccc(/C=N\Nc2ccc([N+](=O)[O-])cn2)cc1
inactive: dose: 50.0 mg/kg/injection, schedule: Q04DX003 (ip), vehicle: saline sonified 96 % of control | dose: 100.0 mg/kg/injection, schedule: Q04DX003 (ip), vehicle: saline sonified 89 % of control | dose: 200.0 mg/kg/injection, schedule: Q04DX003 (ip), vehicle: saline sonified 96 % of control

CNc1ccc(Br)c2c1C(=O)c1ccccc1C2=O
inactive: [5] 97 % of control | [6] 101 % of control | [7] 95 % of control

Cc1ccc(S(=O)(=O)NN2C(=O)c3ccccc3C2=O)cc1
inactive: dose: 25.0 mg/kg/injection, schedule: Q04DX002 (ip), vehicle: saline with Tween-80 96 % of control | dose: 50.0 mg/kg/injection, schedule: Q04DX002 (ip), vehicle: saline with Tween-80 96 % of control | [8] 100 % of control | [9] 96 % of control

CN(C)C1c2ccccc2-c2ccc([N+](=O)[O-])cc21 (centres undefined)
inactive: dose: 50.0 mg/kg/injection, schedule: Q01DX001 (ip), vehicle: carboxymethylcellulose (CMC) 107 % of control | dose: 100.0 mg/kg/injection, schedule: Q01DX001 (ip), vehicle: carboxymethylcellulose (CMC) 101 % of control | dose: 200.0 mg/kg/injection, schedule: Q01DX001 (ip), vehicle: carboxymethylcellulose (CMC) 101 % of control | dose: 400.0 mg/kg/injection, schedule: Q01DX001 (ip), vehicle: carboxymethylcellulose (CMC) 101 % of control

O=C(O)COc1ccc(Cl)cc1Cl.[Cr]
inactive: [8] 94 % of control | [9] 87 % of control | [10] 102 % of control

COc1cc(-c2ccc3cc(OC)c(OC)c(OC)c3c2)cc(OC)c1OC
inactive: [1] 96 % of control | [2] 98 % of control | [3] 96 % of control

CC(=O)Nc1ncc2nc(C)c(C)nc2n1
inactive: [4] 98 % of control

Nc1ccc(C(O)(C(F)(F)F)C(F)(F)F)c(C(=O)O)c1
inactive: dose: 100.0 mg/kg/injection, schedule: Q01DX009 (ip), vehicle: other 106 % of control | dose: 200.0 mg/kg/injection, schedule: Q01DX009 (ip), vehicle: other 106 % of control | dose: 400.0 mg/kg/injection, schedule: Q01DX009 (ip), vehicle: other 102 % of control

CC(C)(C)N.[O]=[Cr](=[O])([OH])[OH]
inactive: dose: 5.0 mg/kg/injection, schedule: Q01DX001 (ip), vehicle: saline 104 % of control | dose: 10.0 mg/kg/injection, schedule: Q01DX001 (ip), vehicle: saline 102 % of control | dose: 20.0 mg/kg/injection, schedule: Q01DX001 (ip), vehicle: saline 96 % of control | dose: 40.0 mg/kg/injection, schedule: Q01DX001 (ip), vehicle: saline 94 % of control

CC(C)(O)C(Cl)S(=O)c1ccccc1 (centres undefined)
inactive: dose: 37.5 mg/kg/injection, schedule: Q04DX003 (ip), vehicle: saline with Tween-80 100 % of control | dose: 75.0 mg/kg/injection, schedule: Q04DX003 (ip), vehicle: saline with Tween-80 100 % of control | dose: 85.0 mg/kg/injection, schedule: Q04DX002 (ip), vehicle: saline with Tween-80 88 % of control | dose: 150.0 mg/kg/injection, schedule: Q04DX003 (ip), vehicle: saline with Tween-80 103 % of control | dose: 190.0 mg/kg/injection, schedule: Q04DX002 (ip), vehicle: saline with Tween-80 90 % of control | dose: 300.0 mg/kg/injection, schedule: Q04DX003 (ip), vehicle: saline with Tween-80 102 % of control

Nc1nc2ncc(CN(N=O)c3ccc(C(=O)NC(CCC(=O)O)C(=O)O)cc3)nc2c(=O)[nH]1 (centres undefined)
inactive: dose: 10.0 mg/kg/injection, schedule: Q01DX009 (ip), vehicle: water 102 % of control | dose: 20.0 mg/kg/injection, schedule: Q01DX009 (ip), vehicle: water 101 % of control | dose: 40.0 mg/kg/injection, schedule: Q01DX009 (ip), vehicle: water 98 % of control | dose: 80.0 mg/kg/injection, schedule: Q01DX009 (ip), vehicle: distilled water + Tween-80 94 % of control | dose: 160.0 mg/kg/injection, schedule: Q01DX009 (ip), vehicle: distilled water + Tween-80 90 % of control

COc1ccccc1NC(=O)Oc1c(C)cccc1C
inactive: [8] 92 % of control | [9] 100 % of control | [10] 111 % of control

CCc1ccc(NC(=O)c2ccccc2C(=O)O)cc1
inactive: [1] 102 % of control | [5] 101 % of control | [2] 98 % of control | [6] 97 % of control | [3] 105 % of control | [7] 97 % of control
